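Grown in 96-well plates, cells were treated for 48 hours with each compound at five concentrations. Insufficient inhibition: endpoint recorded as highest concentration tested. At the GI50, growth is halved.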 The source made the active and inactive calls. Rule as the data show it: active = GI50 up to about 1.1 µM and inactive = higher.
How the values were obtained:
Assay in all cases: NCI tumour cell line growth inhibition, 48 h
[1] = tested on: 786-0
[2] = tested on: A549
[3] = tested on: ACHN
[4] = tested on: BT-549
[5] = tested on: CAKI-1
[6] = tested on: CCRF-CEM
[7] = tested on: COLO 205
[8] = tested on: DU-145
[9] = tested on: EKVX
[10] = tested on: HCC 2998
[11] = tested on: HCT-116
[12] = tested on: HCT-15
[13] = tested on: HL-60
[14] = tested on: HOP-62
[15] = tested on: HOP-92
[16] = tested on: HT-29
[17] = tested on: Hs-578T
[18] = tested on: IGROV-1
[19] = tested on: K562
[20] = tested on: KM12
[21] = tested on: LOX IMVI
[22] = tested on: M14
[23] = tested on: MCF7
[24] = tested on: MDA-MB-231
[25] = tested on: MDA-MB-435
[26] = tested on: MDA-N
[27] = tested on: MOLT-4
[28] = tested on: Malme-3M
[29] = tested on: NCI-H226
[30] = tested on: NCI-H23
[31] = tested on: NCI-H460
[32] = tested on: NCI-H522
[33] = tested on: NCI/ADR-RES
[34] = tested on: OVCAR-3
[35] = tested on: OVCAR-4
[36] = tested on: OVCAR-5
[37] = tested on: OVCAR-8
[38] = tested on: PC-3
[39] = tested on: RPMI-8226
[40] = tested on: SF-268
[41] = tested on: SF-295
[42] = tested on: SF-539
[43] = tested on: SK-MEL-28
[44] = tested on: SK-MEL-2
[45] = tested on: SK-MEL-5
[46] = tested on: SK-OV-3
[47] = tested on: SN12C
[48] = tested on: SNB-19
[49] = tested on: SR
[50] = tested on: SW-620
[51] = tested on: T47D
[52] = tested on: TK-10
[53] = tested on: U-251
[54] = tested on: UACC-257
[55] = tested on: UACC-62
[56] = tested on: UO-31

`Clc1ccc(Cc2nc3cc(Cl)ccc3o2)cc1` was tested. Which GI50 [1] did it give?
The GI50 was 34.4 µM (inactive).

And the GI50 [2]?
The GI50 was 41.5 µM (inactive).

What about the GI50 [3] of the same compound?
The GI50 was 35.6 µM (inactive).

And the GI50 [4]?
Its GI50 is 27.9 µM (inactive).

And the GI50 [5]?
Its GI50 is 30.6 µM (inactive).

What about the GI50 [6] of the same compound?
Its GI50 is 31.6 µM (inactive).

What about the GI50 [7] of the same compound?
The GI50 was 29.8 µM (inactive).

What about the GI50 [8] of the same compound?
The GI50 was 60.8 µM (inactive).

What about the GI50 [9] of the same compound?
The GI50 was 24.8 µM (inactive).

What about the GI50 [10] of the same compound?
Its GI50 is 21.6 µM (inactive).

And the GI50 [11]?
Its GI50 is 35.1 µM (inactive).

And the GI50 [12]?
Its GI50 is 29.5 µM.

What about the GI50 [13] of the same compound?
Its GI50 is 30.4 µM (inactive).

What about the GI50 [14] of the same compound?
The GI50 was 17.4 µM (inactive).

And the GI50 [15]?
Its GI50 is 31.6 µM (inactive).

And the GI50 [16]?
Its GI50 is 26.8 µM (inactive).

And the GI50 [17]?
Its GI50 is 40.8 µM (inactive).

What about the GI50 [18] of the same compound?
Its GI50 is 23.8 µM (inactive).

And the GI50 [19]?
The GI50 was 46.1 µM (inactive).

And the GI50 [20]?
Its GI50 is 29.7 µM (inactive).

And the GI50 [21]?
Its GI50 is 14 µM (inactive).

What about the GI50 [22] of the same compound?
Its GI50 is 34.8 µM (inactive).

What about the GI50 [23] of the same compound?
The GI50 was 38.5 µM (inactive).

What about the GI50 [24] of the same compound?
Its GI50 is 31.7 µM (inactive).

And the GI50 [25]?
The GI50 was 28.7 µM (inactive).

What about the GI50 [26] of the same compound?
The GI50 was 36.1 µM (inactive).

And the GI50 [27]?
The GI50 was 26.5 µM (inactive).

And the GI50 [28]?
The GI50 was 36.1 µM (inactive).

What about the GI50 [29] of the same compound?
The GI50 was 29.1 µM (inactive).

And the GI50 [30]?
The GI50 was 33 µM (inactive).

What about the GI50 [31] of the same compound?
Its GI50 is 42.1 µM (inactive).

What about the GI50 [32] of the same compound?
The GI50 was 21.7 µM (inactive).

What about the GI50 [33] of the same compound?
Its GI50 is 31.9 µM (inactive).

And the GI50 [34]?
The GI50 was 22.4 µM (inactive).

And the GI50 [35]?
The GI50 was 24.4 µM (inactive).

And the GI50 [36]?
Its GI50 is 39.4 µM (inactive).

What about the GI50 [37] of the same compound?
The GI50 was 32.3 µM (inactive).

What about the GI50 [38] of the same compound?
Its GI50 is 32.4 µM (inactive).

What about the GI50 [39] of the same compound?
The GI50 was 30.9 µM (inactive).

What about the GI50 [40] of the same compound?
Its GI50 is 43 µM (inactive).

And the GI50 [41]?
The GI50 was 22.8 µM (inactive).

What about the GI50 [42] of the same compound?
Its GI50 is 30.1 µM (inactive).

What about the GI50 [43] of the same compound?
Its GI50 is 41.4 µM (inactive).

What about the GI50 [44] of the same compound?
The GI50 was 15.7 µM (inactive).

What about the GI50 [45] of the same compound?
The GI50 was 15.3 µM (inactive).

And the GI50 [46]?
Its GI50 is 23 µM (inactive).

And the GI50 [47]?
Its GI50 is 40.1 µM (inactive).

And the GI50 [48]?
Its GI50 is 39.6 µM (inactive).

And the GI50 [49]?
Its GI50 is 30.7 µM (inactive).

What about the GI50 [50] of the same compound?
The GI50 was 56.4 µM (inactive).

What about the GI50 [51] of the same compound?
The GI50 was 35.8 µM (inactive).

What about the GI50 [52] of the same compound?
The GI50 was 52 µM (inactive).

And the GI50 [53]?
Its GI50 is 27.7 µM (inactive).

And the GI50 [54]?
Its GI50 is 33 µM (inactive).

What about the GI50 [55] of the same compound?
Its GI50 is 36.9 µM (inactive).

And the GI50 [56]?
Its GI50 is 32 µM (inactive).

With `COc1ccc(CCn2ccc(=O)c(O)c2C)cc1OC` as the compound, how does the GI50 [1] read?
Its GI50 is 5 µM (inactive).

What about the GI50 [2] of the same compound?
The GI50 was 21.4 µM (inactive).

And the GI50 [3]?
Its GI50 is 5.26 µM (inactive).

What about the GI50 [4] of the same compound?
The GI50 was 52.4 µM (inactive).

What about the GI50 [5] of the same compound?
Its GI50 is 2.48 µM (inactive).

And the GI50 [7]?
Its GI50 is 26.7 µM (inactive).

And the GI50 [8]?
The GI50 was 12.4 µM (inactive).

What about the GI50 [9] of the same compound?
The GI50 was 24.4 µM (inactive).

What about the GI50 [11] of the same compound?
The GI50 was 37.2 µM (inactive).

And the GI50 [12]?
Its GI50 is 2.7 µM.

What about the GI50 [13] of the same compound?
Its GI50 is 32.2 µM (inactive).

What about the GI50 [14] of the same compound?
Its GI50 is 17.5 µM (inactive).

And the GI50 [15]?
The GI50 was 20.4 µM (inactive).

What about the GI50 [16] of the same compound?
The GI50 was 18.5 µM (inactive).

What about the GI50 [17] of the same compound?
The GI50 was < 0.01 µM (active).

What about the GI50 [19] of the same compound?
Its GI50 is 37.1 µM (inactive).

What about the GI50 [20] of the same compound?
The GI50 was 40.3 µM (inactive).

And the GI50 [21]?
The GI50 was 25.5 µM (inactive).

What about the GI50 [22] of the same compound?
Its GI50 is 12.2 µM (inactive).

And the GI50 [23]?
The GI50 was 20.5 µM (inactive).

What about the GI50 [24] of the same compound?
Its GI50 is 1.4 µM (inactive).

What about the GI50 [25] of the same compound?
The GI50 was 41.6 µM (inactive).

And the GI50 [26]?
The GI50 was 19.2 µM (inactive).

What about the GI50 [27] of the same compound?
Its GI50 is 16 µM (inactive).

And the GI50 [28]?
Its GI50 is 30.7 µM (inactive).

And the GI50 [30]?
The GI50 was 27.9 µM (inactive).

What about the GI50 [31] of the same compound?
Its GI50 is 5.81 µM (inactive).

And the GI50 [33]?
Its GI50 is 7.45 µM (inactive).

What about the GI50 [36] of the same compound?
The GI50 was 26.7 µM (inactive).

And the GI50 [37]?
The GI50 was 16.9 µM (inactive).

And the GI50 [38]?
The GI50 was 56.2 µM (inactive).

And the GI50 [39]?
Its GI50 is 34 µM (inactive).

And the GI50 [40]?
The GI50 was 2.37 µM (inactive).

And the GI50 [41]?
Its GI50 is 5.77 µM (inactive).

And the GI50 [42]?
The GI50 was 26.2 µM (inactive).

And the GI50 [45]?
Its GI50 is 13.5 µM (inactive).

What about the GI50 [46] of the same compound?
Its GI50 is 21.2 µM (inactive).

What about the GI50 [48] of the same compound?
Its GI50 is 16 µM (inactive).

What about the GI50 [49] of the same compound?
Its GI50 is 28.4 µM (inactive).

What about the GI50 [50] of the same compound?
Its GI50 is 41.1 µM (inactive).

What about the GI50 [51] of the same compound?
The GI50 was 29.9 µM (inactive).

And the GI50 [52]?
Its GI50 is 5.87 µM (inactive).

And the GI50 [53]?
Its GI50 is 9.64 µM (inactive).

What about the GI50 [54] of the same compound?
Its GI50 is 6.18 µM (inactive).

Which results are given for `Cc1c(O)c(=O)ccn1CCc1ccc(O)cc1`?
GI50 [1]: 6.32 µM (inactive); GI50 [2]: 32.9 µM (inactive); GI50 [3]: 13.9 µM (inactive); GI50 [4]: > 100 µM (inactive); GI50 [5]: 4.52 µM (inactive); GI50 [6]: 10 µM (inactive); GI50 [7]: 31.5 µM (inactive); GI50 [8]: 24.9 µM (inactive); GI50 [9]: 20.4 µM (inactive); GI50 [11]: 35.7 µM (inactive); GI50 [12]: 4.82 µM; GI50 [13]: 33.5 µM (inactive); GI50 [14]: 22.1 µM (inactive); GI50 [15]: 24.3 µM (inactive); GI50 [16]: 20.4 µM (inactive); GI50 [17]: 24.3 µM (inactive); GI50 [19]: 32.7 µM (inactive); GI50 [20]: 41.3 µM (inactive); GI50 [21]: 20.5 µM (inactive); GI50 [22]: 17.3 µM (inactive); GI50 [23]: 23.9 µM (inactive); GI50 [24]: 2.2 µM (inactive); GI50 [25]: 42.2 µM (inactive); GI50 [26]: 11.9 µM (inactive); GI50 [27]: 26.8 µM (inactive); GI50 [28]: 22.5 µM (inactive); GI50 [30]: 35.7 µM (inactive); GI50 [31]: 17.1 µM (inactive); GI50 [33]: 8.71 µM (inactive); GI50 [34]: 11.2 µM (inactive); GI50 [35]: 22 µM (inactive); GI50 [36]: 30 µM (inactive); GI50 [37]: 31.3 µM (inactive); GI50 [38]: 25.9 µM (inactive); GI50 [39]: 14.7 µM (inactive); GI50 [40]: 9.51 µM (inactive); GI50 [41]: 24.3 µM (inactive); GI50 [42]: 29.4 µM (inactive); GI50 [43]: 38.4 µM (inactive); GI50 [45]: 21.3 µM (inactive); GI50 [46]: 24.8 µM (inactive); GI50 [48]: 15.6 µM (inactive); GI50 [49]: 34.6 µM (inactive); GI50 [50]: 44.8 µM (inactive); GI50 [51]: 45.6 µM (inactive); GI50 [52]: 15.8 µM (inactive); GI50 [53]: 13.9 µM (inactive); GI50 [54]: 25.5 µM (inactive); GI50 [55]: 0.615 µM (active)
